Assay results from US12187759B2, “TLR7 agonists” (Primmune Therapeutics, Inc., priority 2019, dated 2025).

Key:
human TLR7 = biological target: T1, human TLR7 (Homo sapiens, UniProt Q9NYK1); test: TLR7 reporter cell assay (HEK293 cells stably expressing human TLR7 with NF-κB-driven SEAP reporter); assay type: cell-based; conditions: 15-24 hours; for Emax at 500 µM: HEK293, 500 μM compound, SEAP activity (OD 650 nm) relative to 28.5 μM resiquimod, read-out: Response at 500 μM Compound as a Percent of Resiquimod Response; for EC50: fit of SEAP dose response, ymax from 28.5 μM resiquimod
T1 construct: host or cells: HEK293
T1 sequence (Q9NYK1 27-1049): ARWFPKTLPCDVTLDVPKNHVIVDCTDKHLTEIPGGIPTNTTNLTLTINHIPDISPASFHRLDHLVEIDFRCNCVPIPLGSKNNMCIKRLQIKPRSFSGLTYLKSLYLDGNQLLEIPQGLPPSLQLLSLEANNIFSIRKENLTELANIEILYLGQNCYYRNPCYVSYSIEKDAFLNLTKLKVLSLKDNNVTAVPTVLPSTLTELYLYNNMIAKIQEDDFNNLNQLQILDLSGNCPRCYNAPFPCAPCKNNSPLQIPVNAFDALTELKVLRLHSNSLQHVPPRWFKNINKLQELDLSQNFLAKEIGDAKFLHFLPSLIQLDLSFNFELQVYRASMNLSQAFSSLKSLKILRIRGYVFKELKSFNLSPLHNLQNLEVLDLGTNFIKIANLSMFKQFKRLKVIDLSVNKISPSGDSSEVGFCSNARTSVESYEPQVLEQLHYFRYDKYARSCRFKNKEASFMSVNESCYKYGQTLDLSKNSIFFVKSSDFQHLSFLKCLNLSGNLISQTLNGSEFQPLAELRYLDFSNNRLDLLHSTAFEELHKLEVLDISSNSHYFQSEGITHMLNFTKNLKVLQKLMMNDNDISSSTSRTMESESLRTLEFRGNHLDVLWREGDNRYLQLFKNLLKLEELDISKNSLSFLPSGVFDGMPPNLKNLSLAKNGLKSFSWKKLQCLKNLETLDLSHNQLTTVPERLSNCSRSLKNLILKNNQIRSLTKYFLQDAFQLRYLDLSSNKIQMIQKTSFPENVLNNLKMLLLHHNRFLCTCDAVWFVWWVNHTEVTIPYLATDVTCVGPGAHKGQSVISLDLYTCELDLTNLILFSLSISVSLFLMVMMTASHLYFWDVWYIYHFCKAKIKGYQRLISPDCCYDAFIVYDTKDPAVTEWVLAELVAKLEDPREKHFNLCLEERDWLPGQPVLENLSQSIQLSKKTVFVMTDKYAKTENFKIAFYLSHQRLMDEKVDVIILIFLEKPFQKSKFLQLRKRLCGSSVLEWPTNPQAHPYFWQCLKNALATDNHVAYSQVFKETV
Source text: The engagement of TLRs by cognate ligands triggers downstream signaling cascades, leading to the activation of NF-κB and other transcription factors which initiate various immunomodulatory effects. The human embryonic kidney cell line, HEK293, is essentially non-responsive to TLR agonists, but ectopic expression of TLRs in these cells allows cognate agonists to activate endogenous NF-κB. Accordingly, the HEK293-TLR-NF-κB inducible reporter system is used to assay TLR agonists.
HEK293 cell lines stably expressing human TLR7 or TLR8 together with an NF-κB-driven-secreted alkaline phosphatase (SEAP) reporter were invented at InvivoGen (San Diego, California, USA) and used to assess compounds of the present invention for TLR7 and TLR8 agonist activities. Cells were seeded at 2-5×10^4 cells/well in 96 well plates (200 μl/well) and treated with various concentrations of compound (10 μl) for 15-24 hours. SEAP activity was determined by measuring OD at 650 nm; the media used to culture the cell lines contains the reagents required for SEAP detection. The EC50 values in Table 1 are calculated from fitting the dose response of measured SEAP activity for each compound to the following equation: Y=ymax*c^nh/(EC50^nh+c^nh)+blank where Y is the experimentally measured OD650 at concentration c of test article, blank is the observed OD650 in the absence of TLR7 agonist, ymax is the difference between the measured OD650 in the presence of 28.5 μM resiquimod and the blank and values of EC50 and nh are determined by nonlinear least squares analysis. Resiquimod is a known TLR7 and TLR8 agonist.
Compound A is 5-amino-3-((2R,3R,5S)-3-hydroxy-5-((S)-1-hydroxypropyl)tetrahydrofuran-2-yl)thiazolo[4,5-d]pyrimidine-2,7(3H,6H)-dione)

[1] = tested on: hPBMCs (Human Peripheral Blood Mononuclear Cells); test: Induction of interferon-α in hPBMCs in vitro; assay type: cell-based; conditions: for Emax / minimal effective concentration: Homo sapiens, PBMC; for Emax: 24 h, peak IFNα2a as percentage of peak response of standard 2-Amino-7-(cyclopropylmethyl)-9-B-D-xylofuranosyl-7,9-dihydro-1H-purine-6,8-dione, averaged across donors, read-out: IFNrmax, Relative Maximal IFNα2a Production (%); for minimal effective concentration: minimal effective concentration for interferon-α production (generally at least 80 pg/ml above baseline), geometric mean across at least three donors, 24 hours, read-out: Weighted MEC
Protocol: Treatment of hPBMCs with a TLR7 agonist typically induces some production of interferon-α as well as lesser amounts of a variety of other cytokines and chemokines. A typical experiment uses hPBMCs isolated from a healthy donor and placed in replicate cell culture wells; typically 1.0-7.5×10^6 cells are placed in each well. A test compound is added and the cells are cultured for 24 hours at 37° C. in a humidified atmosphere containing 5% CO2 post-addition; untreated controls are included. Secreted interferon-α production is measured using an a multisubtype interferon-α ELISA kit like those from PBL Assay Sciences or specifically as IFNα2a as part of a panel of cytokines and chemokines using luminex methodologies.
The minimal effective concentration (MEC) is the minimum concentration in a dose response curve where a significant increase in interferon-α production (generally at least 80 pg/ml) is observed above baseline. MEC values for each compound are determined for at least three donors. The weighted MEC for each compound is the geometric mean of all individual MECs across all donors. Concentrations tested typically consist of a two-fold dilution series starting at 100 μM. In the calculation of weighted MEC, any individual MEC value greater the highest concentration tested is arbitrarily set to two times the highest concentration tested unless all MECs for a compound exceed this value. The maximal amount of IFNα2a for each donor is determined from dose dependence for each compound.
In order to normalize for variation in each hPBMC preparation, these values are first transformed by expressing as a percentage of peak response measured with a standard (2-Amino-7-(cyclopropylmethyl)-9-B-D-xylofuranosyl-7,9-dihydro-1H-purine-6,8-dione) and then averaging the results across all donors, this average referred to as IFNrmax.
IFNmax is the maximum amount of IFN observed at any concentration across the evaluated concentration range. MEC and IFNmax values for three select compound are shown for three donors (Table 3). The range of tested concentrations were 0.625-5 μM for Imiquimod, 3.125-100 μM for both Compound A and Compound 1, 12.5-100 μM for Compound 2.

C#CCn1c(=O)n([C@@H]2O[C@H]([C@H](O)CF)C[C@H]2O)c2nc(N)[nH]c(=O)c21 [Compound 23, 2-Amino-9-((2R,3R,5S)-5-((S)-2-fluoro-1-hydroxyethyl)-3-hydroxytetrahydrofuran-2-yl)-7-(prop-2-yn-1-yl)-7,9-dihydro-1H-purine-6,8-dione]
Emax at 500 µM (human TLR7): < 5%
Emax [1]: ≤ 10%
minimal effective concentration [1]: > 50 µM

C#CCn1c(=O)n([C@@H]2O[C@H](C(C)(C)O)[C@H](F)[C@H]2O)c2nc(N)[nH]c(=O)c21 [Compound 19, 2-Amino-9-((2R,3S,4R,5R)-4-fluoro-3-hydroxy-5-(2-hydroxypropan-2-yl)tetrahydrofuran-2-yl)-7-(prop-2-yn-1-yl)-7,9-dihydro-1H-purine-6,8-dione]
Emax at 500 µM (human TLR7): < 5%
Emax [1]: ≤ 10%
minimal effective concentration [1]: > 50 µM

CC[C@H](O)[C@@H]1C[C@@H](O)[C@H](n2c(=O)n(C[C@H](C)O)c3c(=O)[nH]c(N)nc32)O1 (single isomer, unassigned) [Compound 34]
Emax at 500 µM (human TLR7): 81%
EC50 (human TLR7): 137 µM
Emax [1]: 272%
minimal effective concentration [1]: 1.6 µM

C#CCn1c(=O)n([C@@H]2O[C@H](C(N)=O)C[C@H]2O)c2nc(N)[nH]c(=O)c21 [Compound 41, (2S,4R,5R)-5-(2-Amino-6,8-dioxo-7-(prop-2-yn-1-yl)-1,6,7,8-tetrahydro-9H-purin-9-yl)-4-hydroxytetrahydrofuran-2-carboxamide]
Emax at 500 µM (human TLR7): < 5%
Emax [1]: ≤ 10%
minimal effective concentration [1]: > 50 µM

CC[C@H](O)[C@@H]1C[C@@H](O)[C@H](n2c(=O)n(CCO)c3c(=O)[nH]c(N)nc32)O1 [Compound 32, 2-Amino-9-((2R,3R,5S)-3-hydroxy-5-((S)-1-hydroxypropyl)tetrahydrofuran-2-yl)-7-(2-hydroxyethyl)-7,9-dihydro-1H-purine-6,8-dione]
Emax at 500 µM (human TLR7): 68%
EC50 (human TLR7): 339 µM
Emax [1]: 223%
minimal effective concentration [1]: 7.9 µM

C#CCn1c(=O)n([C@@H]2O[C@H]([C@@H](O)CC)C[C@H]2O)c2nc(N)[nH]c(=O)c21 [Compound 1, 2-amino-9-((2R,3R,5S)-3-hydroxy-5-((S)-1-hydroxypropyl)tetrahydrofuran-2-yl)-7-(prop-2-yn-1-yl)-7,9-dihydro-1H-purine-6,8-dione]
Emax at 500 µM (human TLR7): 67%
EC50 (human TLR7): 103 µM
Donor 1 IFNmax ([1]; Donor 1, maximum IFN at any concentration of the evaluated range): 3775 pg/mL
Donor 2 MEC ([1]; Donor 2, interferon-α production): 6.25 µM
Donor 2 IFNmax ([1]; Donor 2, maximum IFN at any concentration of the evaluated range): 2129 pg/mL
Donor 3 IFNmax ([1]; Donor 3, maximum IFN at any concentration of the evaluated range): 5623 pg/mL
Emax [1]: 316%
minimal effective concentration [1]: ≤ 2.9 µM
IFNmax of Compound 1 relative to Compound A ([1]; donor 1): 3.6 fold
IFNmax of Compound 1 relative to imiquimod ([1]; donor 1): 4.8 fold
IFNmax of Compound 1 relative to Compound A ([1]; donor 2): 4.4 fold
IFNmax of Compound 1 relative to imiquimod ([1]; donor 2): 11.0 fold
IFNmax of Compound 1 relative to Compound A ([1]; donor 3): 2.5 fold
IFNmax of Compound 1 relative to imiquimod ([1]; donor 3): 4.2 fold
potency (MEC) of Compound 1 relative to Compound 2 ([1]; in every case (Donors 1, 2 and 3)): ≥ 16 fold

CCCn1c(=O)n([C@@H]2O[C@H]([C@@H](O)C(F)(F)F)C[C@H]2O)c2nc(N)[nH]c(=O)c21 [Compound 25, 2-Amino-9-((2R,3R,5S)-3-hydroxy-5-((R)-2,2,2-trifluoro-1-hydroxyethyl)tetrahydrofuran-2-yl)-7-propyl-7,9-dihydro-1H-purine-6,8-dione]
Emax at 500 µM (human TLR7): 74%
EC50 (human TLR7): 324 µM
Emax [1]: 80%
minimal effective concentration [1]: 19.8 µM

C#CCn1c(=O)n([C@@H]2O[C@H](C(C)(C)O)C[C@H]2O)c2nc(N)[nH]c(=O)c21 [Compound 18, 2-Amino-9-((2R,3R,5S)-3-hydroxy-5-(2-hydroxypropan-2-yl)tetrahydrofuran-2-yl)-7-(prop-2-yn-1-yl)-7,9-dihydro-1H-purine-6,8-dione]
Emax at 500 µM (human TLR7): < 5%
Emax [1]: ≤ 10%
minimal effective concentration [1]: > 50 µM
